The values below come from patent US20260035363A1, “COMPOUNDS AND METHODS OF USE THEREOF AS ANTIBACTERIAL AGENTS” (priority 2019, published 2026).

What all share (format): cell-based
The test system of assay [1] is Mycobacterium tuberculosis (Mtb-GFP; H37Rv pMSP12::GFP). As to the kind of experiment: microbe, parasite or virus in culture. The note with it: 168 h, pH 6.8, read-out: Mtb Cho MITC95, cholesterol carbon source, pH 6.8, 7-day growth, GFP fluorescence, lowest concentration inhibiting 95% of growth.
Assay [2] shares this test system. As to the kind of experiment: microbe, parasite or virus in culture. To be noted: 168 h, pH 6.8, read-out: Mtb Glu MITC95, glucose carbon source, pH 6.8, 7-day growth, GFP fluorescence, lowest concentration inhibiting 95% of growth.
Assay [3] deals with mitochondrial protein synthesis in HepG2 cells. The assay is described as follows: Mitochondrial protein synthesis assay (COX-I to SDH-A ratio, In Cell ELISA). To be noted: 4 days, ratio of COX-I to SDH-A levels, read-out: MPS IC50. Here is the method: Mitochondrial Protein Synthesis Assay
Inhibition of mitochondrial protein synthesis was assessed in HepG2 cells by comparing the levels of two subunits of oxidative phosphorylation enzyme complexes, subunit I of Complex IV (COX-I) and the 70 kDa subunit of Complex II (SDH-A). COX-I is mitochondrial DNA encoded and SDH-A is nuclear DNA encoded. HepG2 cells were seeded in 96-well collagen coated plates at 8,000 cells per well and exposed to 2-fold serial dilutions of compounds from 100 μM to 6.25 μM. Microtiter plates were incubated for approximately 5 replication cycles (4 days) prior to assessment of protein levels using a kit as described by the manufacturer (ab110217 MitoBiogenesis In Cell ELISA Kit, Abcam, Cambridge, MA). Inhibition of mitochondrial protein synthesis was expressed as a ratio of COX-1 to SDH-A levels.

Converted amounts (≈) assume the structure as drawn. Where two headings read alike, the source gives them in different places. Where only a bound is given, the exact number is not on record here.

As to `CN1CC(C)(S(=O)(=O)c2ccc(-c3ccc(C4=NO[C@@H](Cn5ccnn5)C4)cc3F)cc2)C1` [Example 3, (5R)-3-[4-[4-(1,3-Dimethylazetidin-3-yl)sulfonylphenyl]-3-fluoro-phenyl]-5-(triazol-1-ylmethyl)-4,5-dihydroisoxazole], the MIC is 0.14 µM (≈ 0.0657 µg/mL) in assay [1] and 0.12 µM (≈ 0.0563 µg/mL) in assay [2]. Moreover, the concentration for half-maximal inhibition (IC50) in assay [3] (Homo sapiens, HepG2, 96 h) worked out at 6.2 µM.

For `N=S1(=O)CCC(F)(c2c(F)cc(C3=NO[C@@H](Cn4ccnn4)C3)cc2F)CC1` (stereo partly drawn) [Example 39, 4-(2,6-Difluoro-4-{(5R)-5-[(1H-1,2,3-triazol-1-yl)methyl]-4,5-dihydro-1,2-oxazol-3-yl}phenyl)-4-fluoro-1-imino-1λ^6-thian-1-one], the IC50 in assay [3] is more than 100 µM.

Consider `CS(=O)(=O)NC[C@H]1CC(c2ccc(-c3ccc(S(C)(=O)=O)cc3)c(F)c2)=NO1` [Example 19, N-({(5R)-3-[2-Fluoro-4′-(methanesulfonyl)[1,1′-biphenyl]-4-yl]-4,5-dihydro-1,2-oxazol-5-yl}methyl) methanesulfonamide], for which the values for the MIC in assay [1] and in assay [2] were 9.38 µM (≈ 4 µg/mL) and 6.25 µM (≈ 2.67 µg/mL), respectively. For the same compound, the IC50 in assay [3] (Homo sapiens, HepG2, 96 h) was more than 100 µM.

Consider `CN=S1(=O)CCC(F)(c2c(F)cc(C3=NO[C@@H](Cn4ccnn4)C3)cc2F)CC1` (single isomer, unassigned) [Example 6], for which the MIC in assay [1] and in assay [2] was 1.56 µM (≈ 0.667 µg/mL) in each case. Moreover, in assay [3] (Homo sapiens, HepG2, 96 h), the IC50 was more than 100 µM.

`CN=S1(=O)CCC(F)(c2c(F)cc(C3=NO[C@@H](Cn4ccnn4)C3)cc2F)CC1` (single isomer, unassigned) [Example 7]: the IC50 in assay [3] is more than 100 µM.

Regarding `O=C(NC[C@H]1CC(c2cc(F)c(C3(F)CCS(=O)(=O)CC3)c(F)c2)=NO1)OC1CC1` [Example 50, Cyclopropyl({(5R)-3-[3,5-difluoro-4-(4-fluoro-1,1-dioxo-1λ^6-thian-4-yl)phenyl]-4,5-dihydro-1,2-oxazol-5-yl}methyl)carbamate], the MIC in assay [1] and in assay [2] was 3.12 µM (≈ 1.39 µg/mL) throughout. The IC50 in assay [3] (Homo sapiens, HepG2, 96 h) is more than 100 µM.

On to `CN1CC(F)(c2nnc3cc(-c4ccc(C5=NO[C@@H](Cn6ccnn6)C5)cc4F)ccn23)C1` [Example 51, 3-(3-Fluoro-1-methylazetidin-3-yl)-7-(2-fluoro-4-{(5R)-5-[(1H-1,2,3-triazol-1-yl)methyl]-4,5-dihydro-1,2-oxazol-3-yl}phenyl)[1,2,4]triazolo [4.3-a]pyridine], for which the MIC in assay [1] and in assay [2] was 0.09 µM (≈ 0.0405 µg/mL) throughout. Besides, the IC50 in assay [3] (Homo sapiens, HepG2, 96 h) is 1.4 µM.

`COC(=O)NC[C@H]1CC(c2ccc(-c3ccc(S(=O)(=O)C4(C)CN(C)C4)cc3)c(F)c2)=NO1` [Example 14, Methyl N-[[(5R)-3-[4-[4-(1,3-dimethylazetidin-3-yl)sulfonylphenyl]-3-fluoro-phenyl]-4,5-dihydroisoxazol-5-yl]methyl]carbamate]: the MIC in assay [1] and in assay [2] was 0.12 µM (≈ 0.0571 µg/mL) in each case. The IC50 in assay [3] (Homo sapiens, HepG2, 96 h) is 42 µM.

Regarding `O=S1(=O)CCC(F)(c2c(F)cc(C3=NO[C@@H](CO)C3)cc2F)CC1` [Example 47, 4-{2,6-Difluoro-4-[(5R)-5-(hydroxymethyl)-4,5-dihydro-1,2-oxazol-3-yl]phenyl}-4-fluoro-1λ^6-thiane-1,1-dione], the MIC in assay [1] and in assay [2] was 6.25 µM (≈ 2.27 µg/mL) each time. The IC50 in assay [3] (Homo sapiens, HepG2, 96 h) is more than 100 µM.

For the compound `CN1CC(Oc2ccc(-c3c(F)cc(C4=NO[C@@H](Cn5ccnn5)C4)cc3F)cc2)C1` [Example 34, 1-{[(5R)-3-{2,6-Difluoro-4′-[(1-methylazetidin-3-yl)oxy][1,1′-biphenyl]-4-yl}-4,5-dihydro-1,2-oxazol-5-yl]methyl}-1H-1,2,3-triazole], the MIC in assay [1] and in assay [2] was 0.09 µM (≈ 0.0383 µg/mL) in each case. Besides, the IC50 in assay [3] (Homo sapiens, HepG2, 96 h) turned out to be 2.6 µM.

As to `COC(=O)NC[C@H]1CC(c2cc(F)c(C3(F)CCS(=O)(=O)CC3)c(F)c2)=NO1` [Example 2, Methyl N-[[(5R)-3-[3,5-difluoro-4-(4-fluoro-1,1-dioxo-thian-4-yl)phenyl]-4,5-dihydroisoxazol-5-yl]methyl]carbamate], the MIC in assay [1] and in assay [2] was 1.6 µM (≈ 0.673 µg/mL) throughout. Further, in assay [3] (Homo sapiens, HepG2, 96 h), the IC50 was more than 100 µM.

In the case of `O=S1(=O)CCC(F)(c2c(F)cc(C3=NO[C@@H](Cn4ccnn4)C3)cc2F)CC1` [Example 1, 4-[2,6-Difluoro-4-[(5R)-5-(triazol-1-ylmethyl)-4,5-dihydroisoxazol-3-yl]phenyl]-4-fluoro-thiane 1,1-dioxide], the MIC in assay [1] and in assay [2] was 1.2 µM (≈ 0.497 µg/mL) throughout. For the same compound, the 50% inhibitory concentration (IC50) in assay [3] (Homo sapiens, HepG2, 96 h) stood at 93 µM.

For `CCOC(=O)NC[C@H]1CC(c2cc(F)c(C3(F)CCS(=O)(=O)CC3)c(F)c2)=NO1` [Example 55, Ethyl ({(5R)-3-[3,5-difluoro-4-(4-fluoro-1,1-dioxo-1λ^6-thian-4-yl)phenyl]-4,5-dihydro-1,2-oxazol-5-yl}methyl)carbamate], the MIC in assay [1] and in assay [2] was 3.12 µM (≈ 1.36 µg/mL) each time. In assay [3] (Homo sapiens, HepG2, 96 h), the half-maximal inhibitory concentration (IC50) is more than 100 µM.

Turning to `O=S1(=O)CCC(F)(c2c(F)cc(C3=NO[C@@H](Cn4cc(CO)nn4)C3)cc2F)CC1` [Example 40, 4-{2,6-Difluoro-4-[(5R)-5-{[4-(hydroxymethyl)-1H-1,2,3-triazol-1-yl]methyl}-4,5-dihydro-1,2-oxazol-3-yl]phenyl}-4-fluoro-1λ^6-thiane-1,1-dione], the MIC in assay [1] and in assay [2] was 1.56 µM (≈ 0.693 µg/mL) each time. The IC50 in assay [3] (Homo sapiens, HepG2, 96 h) was more than 100 µM.

As for `CC1(S(=O)(=O)c2ccc(-c3ccc(C4=NO[C@@H](Cn5ccnn5)C4)cc3F)cc2)CNC1` [Example 23, 1-({(5R)-3-[2-Fluoro-4′-(3-methylazetidine-3-sulfonyl)[1,1′-biphenyl]-4-yl]-4,5-dihydro-1,2-oxazol-5-yl}methyl)-1H-1,2,3-triazole], the figures for the MIC in assay [1] and in assay [2] were 0.78 µM (≈ 0.355 µg/mL) and 1.56 µM (≈ 0.711 µg/mL), respectively. For the same compound, the IC50 in assay [3] (Homo sapiens, HepG2, 96 h) came out at 16 µM.

In the case of `CN1CCC(C)(S(=O)(=O)c2ccc(-c3ccc(C4=NO[C@@H](Cn5ccnn5)C4)cc3F)cc2)C1` (stereo partly drawn) [Example 45, l-({(5R)-3-[4′-(1,3-Dimethylpyrrolidine-3-sulfonyl)-2-fluoro[1,1′-biphenyl]-4-yl]-4,5-dihydro-1,2-oxazol-5-yl}methyl)-1H-1,2,3-triazole], the MIC in assay [1] was 0.39 µM (≈ 0.189 µg/mL); in assay [2], 0.19 µM (≈ 0.0919 µg/mL). Further, in assay [3] (Homo sapiens, HepG2, 96 h), the IC50 was determined as 4 µM.

Take `CN1CC(CF)(S(=O)(=O)c2ccc(-c3ccc(C4=NO[C@@H](Cn5ccnn5)C4)cc3F)cc2)C1` [Example 25, 1-{[(5R)-3-{2-Fluoro-4′-[3-(fluoromethyl)-1-methylazetidine-3-sulfonyl][1,1′-biphenyl]-4-yl}-4,5-dihydro-1,2-oxazol-5-yl]methyl}-1H-1,2,3-triazole]: the MIC in assay [1] is 0.09 µM (≈ 0.0439 µg/mL); in assay [2], 0.19 µM (≈ 0.0926 µg/mL). Further, the IC50 in assay [3] (Homo sapiens, HepG2, 96 h) was 2.5 µM.

`CN1CC(S(=O)(=O)c2ccc(-c3ccc(C4=NO[C@@H](Cn5ccnn5)C4)cc3F)cc2)C1` [Example 32, 1-({(5R)-3-[2-Fluoro-4′-(1-methylazetidine-3-sulfonyl)[1,1′-biphenyl]-4-yl]-4,5-dihydro-1,2-oxazol-5-yl}methyl)-1H-1,2,3-triazole]: the MIC in assay [1] was 0.09 µM (≈ 0.041 µg/mL); in assay [2], 0.065 µM (≈ 0.0296 µg/mL). Also, the IC50 in assay [3] (Homo sapiens, HepG2, 96 h) is 0.77 µM.

As for `Cc1nnc2cc(-c3c(F)cc(C4=NO[C@@H](Cn5ccnn5)C4)cc3F)ccn12` [Example 16, (5R)-3-[3,5-Difluoro-4-(3-methyl-[1,2,4]triazolo[4,3-a]pyridin-7-yl)phenyl]-5-(triazol-1-ylmethyl)-4,5-dihydroisoxazole], the figures for the MIC in assay [1] and in assay [2] were 0.59 µM (≈ 0.233 µg/mL) and 0.39 µM (≈ 0.154 µg/mL), respectively. The IC50 in assay [3] (Homo sapiens, HepG2, 96 h) amounted to 5.4 µM.

As to `COC(=O)NC[C@H]1CC(c2cc(F)c(N3CCS(=O)(=O)CC3)c(F)c2)=NO1` [Example 4, Methyl N-[[(5R)-3-[4-(1,1-dioxo-1,4-thiazinan-4-yl)-3,5-difluoro-phenyl]-4,5-dihydroisoxazol-5-yl]methyl]carbamate], the MIC in assay [1] and in assay [2] was 3.12 µM (≈ 1.26 µg/mL) in each case. Further, the IC50 in assay [3] (Homo sapiens, HepG2, 96 h) was more than 100 µM.

With `CN=S1(=O)CCC(F)(c2c(F)cc(C3=NO[C@@H](CNC(C)=O)C3)cc2F)CC1` (stereo partly drawn) [Example 30, N-{[(5R)-3-{3,5-Difluoro-4-[4-fluoro-1-(methylimino)-1-oxo-1λ^6-thian-4-yl]phenyl}-4,5-dihydro-1,2-oxazol-5-yl]methyl}acetamide], the IC50 in assay [3] was more than 100 µM.

Take `CN1CC(C)(S(=O)(=O)c2ccc(-c3ccc(C4=NO[C@@H](CNC(=O)OC5CC5)C4)cc3F)cc2)C1` [Example 17, Cyclopropyl N-[[(5R)-3-[4-[4-(1,3-dimethylazetidin-3-yl)sulfonylphenyl]-3-fluoro-phenyl]-4,5-dihydroisoxazol-5-yl]methyl]carbamate]: the MIC in assay [1] and in assay [2] was 0.39 µM (≈ 0.196 µg/mL) each time.

Take `O=S1(=O)CCN(c2c(F)cc(C3=NO[C@@H](Cn4ccnn4)C3)cc2F)CC1` [Example 5, 4-(2,6-Difluoro-4-{(5R)-5-[(1H-1,2,3-triazol-1-yl)methyl]-4,5-dihydro-1,2-oxazol-3-yl}phenyl)-1λ^6-thiomorpholine-1,1-dione]: the MIC in assay [1] and in assay [2] was 3.12 µM (≈ 1.24 µg/mL) in each case.

On to `CN=S1(=O)CCC(F)(c2c(F)cc(C3=NO[C@@H](CNC(=O)OC)C3)cc2F)CC1` (single isomer, unassigned) [Example 9], for which, in assay [3], the IC50 was more than 100 µM.
